Reference: patent US20190002942A1, “ANTIBIOTIC FIIRV 104/18 COMPLEX AND THE ISOLATED INDIVIDUAL FACTORS THEREOF” (Fondazione Istituto Insubrico di Ricerca per la Vita, priority 2015, published 2019)
In brackets after ≈: the same amount, converted by molar mass. Where two headings read alike, the source gives them in different places. One block for each compound: values may come before it.

What was measured:
[1] = system: L819 S. aureus Smith ATCC19636; assay: MIC, broth microdilution (CLSI); format: cell-based, Staphylococcus aureus
Description: (§1) Inocula are: 2-5×10^5 CFU/mL for Gram positive and Gram negative bacteria; 10^4 CFU/mL for Candida albicans.
(§2) The effect of 30% bovine serum is determined under the same experimental conditions.
(§3) Cultures are incubated at 35° C. in air. After 18-24 hours visual readings are performed and MICs determined. The MIC (Minimal Inhibitory Concentration) is defined as the lower concentration of antibiotic at which there is no visible growth. The strains used are clinical isolates or strains from American Type Culture Collection (ATCC).

L100 S. aureus ATCC 6538 = assay: MIC, broth microdilution (CLSI); format: cell-based; settings: Staphylococcus aureus, ATCC6538
Description: as §1, §2, §3

L1400 S. aureus MRSA = assay: MIC, broth microdilution (CLSI); format: cell-based; settings: Staphylococcus aureus
Description: as §1, §2, §3

L1577 S. epidermidis = assay: MIC, broth microdilution (CLSI); format: cell-based; settings: Staphylococcus epidermidis
Description: as §1, §2, §3

[2] = system: L1729 S. haemolyticus MDR; assay: MIC, broth microdilution (CLSI); format: cell-based; settings: Staphylococcus haemolyticus
Description: as §1, §2, §3

L1730 S. haemolyticus = assay: MIC, broth microdilution (CLSI); format: cell-based; settings: Staphylococcus haemolyticus
Description: as §1, §2, §3

L3030 A. baumannii = assay: MIC, broth microdilution (CLSI); format: cell-based; settings: Acinetobacter baumannii; L3030 A. baumannii; read-out: MIC
Description: as §1, §2, §3

L3294 M. catarrhalis = assay: MIC, broth microdilution (CLSI); format: cell-based; settings: Moraxella catarrhalis
Description: as §1, §2, §3

L44 S. pneumoniae = assay: MIC, broth microdilution (CLSI); format: cell-based; settings: Streptococcus pneumoniae
Description: as §1, §2, §3

L47 E. coli, SKF 12140 = assay: MIC, broth microdilution (CLSI); format: cell-based; settings: Escherichia coli
Description: as §1, §2, §3

L49 S. pyogenes C203 = assay: MIC, broth microdilution (CLSI); format: cell-based; settings: Streptococcus pyogenes
Description: as §1, §2, §3

L559 E. faecalis = assay: MIC, broth microdilution (CLSI); format: cell-based; settings: Enterococcus faecalis
Description: as §1, §2, §3

L568 E. faecium = assay: MIC, broth microdilution (CLSI); format: cell-based; settings: Enterococcus faecium
Description: as §1, §2, §3

L569 E. faecium VanA = assay: MIC, broth microdilution (CLSI); format: cell-based, Enterococcus faecium
Description: as §1, §2, §3

L560 E. faecalis VanA = assay: MIC, broth microdilution (CLSI); format: cell-based, Enterococcus faecalis
Description: as §1, §2, §3

L2048 B. cenocepacia = assay: MIC, broth microdilution (CLSI); format: cell-based; settings: Burkholderia cenocepacia; L2048 B. cenocepacia; read-out: MIC
Description: (§4) Antimicrobial activity of the antibiotic FIIRV 104/18 complex is determined by the broth microdilution method according to the procedures published by the Clinical and Laboratory Standards Institute (CLSI), formerly the National Committee for Clinical Laboratory Standards (NCCLS) (document M07-A9). Inocula are: 2-5×10^5 CFU/mL for Gram positive and Gram negative bacteria; 10^4 CFU/mL for Candida albicans.
(§5) The media used are: cation adjusted Mueller Hinton broth (CAMHB) for Staphylococci, Enterococci, Moraxella catarrhalis, Escherichia coli; Todd Hewitt broth (THB) for Streptococci; RPMI 1640 Medium for C. albicans. The effect of 30% bovine serum is determined under the same experimental conditions.
as §3, with “(ATCC). Individual factors of antibiotic FIIRV 104/18 are dissolved in DMSO to obtain a 1000 μg/mL stock solution, and subsequently diluted in water to obtain working solution.” for “(ATCC).”

L145 C. albicans = assay: MIC, broth microdilution (CLSI); format: cell-based, Candida albicans; settings: Candida albicans; L145 C. albicans; RPMI; inoculum 10^4 CFU/mL; read-out: MIC
Description: as §4, §5
as §3, with “(ATCC). Individual factors of antibiotic FIIRV 104/18 are dissolved in DMSO to obtain a 1000 μg/mL stock solution, and subsequently diluted in water to obtain working solution.” for “(ATCC).”

[3] = system: Gram-positive susceptible, resistant and multi-resistant pathogenic bacteria; assay: Growth inhibition of Gram-positive bacteria (summary); format: cell-based; settings: Gram positive bacteria: Staphylococci incl. MRSA and MR coagulase-negative, Streptococci, Enterococci incl. VanA
Description: as §4, §5
as §3, with “(ATCC). Individual factors of antibiotic FIIRV 104/18 are dissolved in DMSO to obtain a 1000 μg/mL stock solution, and subsequently diluted in water to obtain working solution.” for “(ATCC).”

[4] = system: Staphylococcus aureus Smith ATCC 19636; assay: Murine Staphylococcus aureus infection model; format: in vivo, ICR mice
Description: Female ICR mice (Harlan, Italy) weighing 21-24 g are infected intraperitoneally (ip) with 5×10^4 cells of Staphylococcus aureus Smith ATCC 19636 in 0.5 mL of 5% gastric mucine. Antibiotic FIIRV 104/18 factor F795 is administered intravenously (iv) within 10-15 min after infection. […] In: Statistical Methods in Biological Assay, 524-530, (1952) Charles Griffin &Co., Ltd., London].

MIC ([1]; Staphylococcus aureus, ATCC19636, L819 S. aureus Smith ATCC19636, CAMHB, read-out: MIC): 0.002 µg/mL (≈ 0.00251 µM) | MIC ([1]; Staphylococcus aureus, ATCC19636, L819 S. aureus Smith, +30% SB (bovine serum), read-out: MIC): 0.125 µg/mL (≈ 0.157 µM) | MIC (L100 S. aureus ATCC 6538; L100 S. aureus ATCC 6538, CAMHB, read-out: MIC): 0.008 µg/mL (≈ 0.0101 µM) | MIC (L1400 S. aureus MRSA; L1400 S. aureus MRSA, CAMHB, read-out: MIC): 0.015 µg/mL (≈ 0.0189 µM) | MIC (L1577 S. epidermidis; L1577 S. epidermidis, CAMHB, read-out: MIC): 0.015 µg/mL (≈ 0.0189 µM) | MIC (L3030 A. baumannii): 16 µg/mL (≈ 20.1 µM) | MIC (L3294 M. catarrhalis; L3294 M. catarrhalis, CAMHB, read-out: MIC): 0.125 µg/mL (≈ 0.157 µM) | MIC (L44 S. pneumoniae; L44 S. pneumoniae, THB, read-out: MIC): 0.015 µg/mL (≈ 0.0189 µM) | MIC (L47 E. coli, SKF 12140; L47 E. coli, SKF 12140, CAMHB, read-out: MIC): > 128 µg/mL | MIC (L49 S. pyogenes C203; L49 S. pyogenes C203, THB, read-out: MIC): 0.015 µg/mL (≈ 0.0189 µM) | MIC (L559 E. faecalis; L559 E. faecalis, CAMHB, read-out: MIC): 0.25 µg/mL (≈ 0.314 µM) | MIC (L568 E. faecium; L568 E. faecium, CAMHB, read-out: MIC): 0.25 µg/mL (≈ 0.314 µM) | MIC (L569 E. faecium VanA; Enterococcus faecium, L569 E. faecium VanA, +30% SB (bovine serum), read-out: MIC): 2 µg/mL (≈ 2.51 µM) | MIC (L569 E. faecium VanA; Enterococcus faecium, L569 E. faecium VanA, CAMHB, read-out: MIC): 0.25 µg/mL (≈ 0.314 µM) | MIC (L560 E. faecalis VanA; Enterococcus faecalis, L560 E. faecalis VanA, +30% SB (bovine serum), read-out: MIC): 0.5 µg/mL (≈ 0.628 µM) | MIC (L560 E. faecalis VanA; Enterococcus faecalis, L560 E. faecalis VanA, CAMHB, read-out: MIC): 0.125 µg/mL (≈ 0.157 µM) | MIC (L2048 B. cenocepacia): 32 µg/mL (≈ 40.2 µM) | MIC (L145 C. albicans): > 128 µg/mL
SMILES: COC(=O)c1c(C)cc2c(c1O)[C@]1(O)C(=O)c3cc4c(c(O)c3C(=O)[C@]1(OC)[C@H](O)C2)C(=O)C=C(N[C@H]1O[C@@H](C)[C@H](O[C@@H]2CCC(=O)[C@H](C)O2)[C@@H](O)[C@H]1OC)C4=O [F795, (6R,6aS,14aR)-methyl 11-[(2S,3R,4R,5R,6S)-4-hydroxy-3-methoxy-6-methyl-5-{[(2S,6S)-6-methyl-5-oxotetrahydro-2H-pyran-2-yl]oxy}tetrahydro-2H-pyran-2-ylamino]-1,6,8,14a-tetrahydroxy-6a-methoxy-3-methyl-7,9,12,14-tetraoxo-5,6,6a,7,9,12,14,14a-octahydrobenzo[a]tetracene-2-carboxylate]
MIC ([2]; L1729 S. haemolyticus MDR, CAMHB, read-out: MIC): 0.015 µg/mL (≈ 0.0189 µM) | MIC (L1730 S. haemolyticus; L1730 S. haemolyticus, CAMHB, read-out: MIC): 0.015 µg/mL (≈ 0.0189 µM) | antibacterial activity (in words) [3]: very high antibacterial activity | ED50 ([4]; ATCC19636, read-out: ED50 (50% effective dose), mice infected ip with S. aureus Smith ATCC 19636, iv within 10-15 min after infection, Spearman-Karber): 0.8 mg/kg

SMILES: CN[C@H](CC(C)C)C(=O)N[C@H]1C(=O)N[C@@H](CC(N)=O)C(=O)N[C@H]2C(=O)N[C@H]3C(=O)N[C@H](C(=O)N[C@H](C(=O)O)c4cc(O)cc(O)c4-c4cc3ccc4O)[C@H](O)c3ccc(c(Cl)c3)Oc3cc2cc(c3O[C@@H]2O[C@H](CO)[C@@H](O)[C@H](O)[C@H]2O[C@H]2C[C@](C)(N)[C@H](O)[C@H](C)O2)Oc2ccc(cc2Cl)[C@H]1O [V, vancomycin, reference compound]
MIC ([1]; L819 S. aureus Smith, +30% SB (bovine serum)): 1 µg/mL (≈ 0.69 µM) | MIC ([1]; Staphylococcus aureus, ATCC19636): 1 µg/mL (≈ 0.69 µM) | MIC (L100 S. aureus ATCC 6538): 1 µg/mL (≈ 0.69 µM) | MIC (L1400 S. aureus MRSA; MRSA): 1 µg/mL (≈ 0.69 µM) | MIC (L1577 S. epidermidis): 2 µg/mL (≈ 1.38 µM) | MIC [2]: 2 µg/mL (≈ 1.38 µM) | MIC (L1730 S. haemolyticus): 2 µg/mL (≈ 1.38 µM) | MIC (L3294 M. catarrhalis): > 2 µg/mL | MIC (L44 S. pneumoniae): 0.5 µg/mL (≈ 0.345 µM) | MIC (L47 E. coli, SKF 12140): > 2 µg/mL | MIC (L49 S. pyogenes C203): 0.5 µg/mL (≈ 0.345 µM) | MIC (L559 E. faecalis): 1 µg/mL (≈ 0.69 µM) | MIC (L568 E. faecium): 2 µg/mL (≈ 1.38 µM) | MIC (L569 E. faecium VanA; Enterococcus faecium): > 128 µg/mL | MIC (L569 E. faecium VanA; L569 E. faecium VanA, +30% SB (bovine serum)): >128 µg/mL | MIC (L560 E. faecalis VanA; Enterococcus faecalis): > 128 µg/mL | MIC (L560 E. faecalis VanA; L560 E. faecalis VanA, +30% SB (bovine serum)): >128 µg/mL | ED50 ([4]; ATCC19636, read-out: ED50 (50% effective dose)): 0.93 mg/kg
